In US8063018B2, “Bivalent thrombin binding molecules comprising linkers” (National Research Council of Canada, priority 2004, dated 2011):
Like-named read-outs stand apart in the source and are kept apart here.

Columns and labels:
[1] = target: T1, thrombin (Homo sapiens, UniProt P00734); assay: Kinetic amidolytic assay with chromogenic substrate S-2238 (inhibition constants); assay type: biochemical
Method: (§1) Peptides were freeze-dried and their identity was confirmed by ion-spray mass spectrometry. Clotting assays were carried out by use of the protocols described previously (DiMaio and others, 1990, 21698-21703; Witting and others, 1992, 737-743). The assay employs bovine plasma fibrinogen dissolved at 0.1% in 50 mM Tris-Cl, 100 mM NaCl, 0.1% PEG-8000 at pH 7.6 (i.e. the clotting buffer). Each assay mixture contained a certain concentration of the peptide, and the reaction was started by the addition of human thrombin to a final concentration of 0.6-1.2 nM. Optical absorbance increase at 420 nm caused by fibrin clot formation was measured at 25° C. or 37° C. using the Spectramax plate reader. The onset clotting time was determined as an intersection of the baseline and the extrapolated linear portion of the OD change curve. The concentration of a peptide needed to double the clotting time was defined as IC50 (DiMaio and others, 1990, 21698-21703). Kinetic amidolytic curves were obtained in clotting buffer at 25° C. using eight inhibitor concentrations and three to five concentrations of the chromogenic substrate S-2238 (Chromogenix) (DiMaio and others, 1990, 21698-21703). Inhibition constants were extracted from Lineweaver-Burk equation by using weighted linear regression. Errors in Ki determination were estimated by using Monte-Carlo sampling with 1-3% variance of the experimental points. Peptide concentrations were determined spectrophotometrically using predicted extinction coefficients at 278 nm (Gill and von Hippel, 1989, 319-326).

[2] = target: T1, thrombin; assay: Fibrinogen clotting assay catalyzed by thrombin; assay type: biochemical; settings: for IC50: concentration needed to double the clotting time; for Clotting onset time: 150 nM peptide, 0.6 nM thrombin
Method: Curves represent OD420 time course after the addition of 0.6 nM thrombin in the presence of (♦) 0 nM; (◯) 0.5 nM; (□) 1 nM; (Δ) 1.5 nM; (⋄) 2.5 nM; (●) 3.75 nM; (▪) 6.25 nM; and (▴) […] of the inhibitor with linker (GS)n and n=2 (SEQ. ID. NO. 50) (a); n=4 (SEQ. ID. NO. 51) (b); n=6 (SEQ. ID. NO. 52) (c); n=8 (SEQ. ID. NO. 53) (d); n=10 (SEQ. ID. NO. 54) (e); and in the presence of (♦) 0 nM; (◯) 1 nM; (□) 2 nM; (Δ) 4 nM; (⋄) 6 nM; (●) 10 nM; (▪) 15 nM; and (▴) 25 nM of the inhibitor with linker (GS)n and n=12 (SEQ. ID. NO. 55) (f); n=14 (SEQ. ID. NO. 56) (g), at 37° C. The onset clotting time was determined as an intersection of the baseline and the extrapolated linear portion of the OD change curve. […] Curves (i) represent OD420 time course in the presence of (A) 0 nM; (◯) 1 nM; (□) 2 nM; (Δ) 4 nM; (⋄) 6 nM; and (●) 15 nM of the inhibitor with linker […] (SEQ. ID. NO. 103), at 37° C. […] represent OD420 time course in the presence of (◯) 0 nM; (□) 2 nM; (Δ) 4 nM; (⋄) 6 nM; (●) 8 nM; (▪) 10 nM; (▴) 12 nM; and (♦) 15 nM; of the inhibitor with linker […] (SEQ. ID. NO. 58) at 25° C. Curves (k) represent OD420 time course in the presence of (◯) 0 nM; (□) 0.5 nM; (Δ) 1 nM; (⋄) 2 nM; (●) 3 nM; (▪) 4 nM; (▴) 5 nM; and (♦) 6 nM; of the inhibitor with linker […] (SEQ. ID. NO. 105) at 37° C. Curves (I) represent OD420 time course in the presence of (◯) 0 nM; (□) 0.25 nM; (Δ) 0.5 nM; (⋄) 1 nM; (●) 1.5 nM; (▪) 2 nM; and (▴) 2.5 nM; of the inhibitor with linker […] (SEQ. ID. NO. 104) at 37° C. Curves (m) represent OD420 time course in the presence of (◯) 0 nM; (□) 2 nM; (Δ) 4 nM; (⋄) 6 nM; (●) 8 nM; (▴) 10 nM; and (A) 12 nM; of the inhibitor with linker […] (SEQ. ID. NO. 106) at 37° C. Curves (n) represent OD420 time course in the presence of (◯) 0 nM; (□) 1 nM; (Δ) 2 nM; (⋄) 3 nM; (●) 4 nM; (▪) 5 nM; (▴) 6 nM; and (♦) 7 nM; of the inhibitor with linker […] (SEQ. ID. NO. 107) at 37° C. Curves (o) represent OD420 time course in the presence of (◯) 0 nM; (□) 4 nM; and (Δ) 8 nM; of the inhibitor with linker GQSHNR (SEQ. ID. NO. 108) at 37° C.
Other experimental conditions were as used for the assays described in FIG. 2.
as §1, with “Clotting” for “Peptides were freeze-dried and their identity was confirmed by ion-spray mass spectrometry. Clotting”, “points.” for “points. Peptide concentrations were determined spectrophotometrically using predicted extinction coefficients at 278 nm (Gill and von Hippel, 1989, 319-326).”

[3] = 25° C., S-2238, clotting buffer, read-out: KI, nM (25° C.)

| SMILES | Ki [1, 3] [nM] | IC50 ([2]; IC50, nM (37° C.), 37° C.) [nM] | IC50 ([2]; IC50, nM (25° C.), 25° C.) [nM] | also measured |
| --- | --- | --- | --- | --- |
| CC[C@H](C)[C@H](NC(=O)[C@H](CCC(=O)O)NC(=O)[C@H](CCC(=O)O)NC(=O)[C@H](Cc1ccccc1)NC(=O)[C@H](CC(=O)O)NC(=O)CNC(=O)[C@H](CO)NC(=O)CNC(=O)[C@H](CO)NC(=O)CNC(=O)[C@H](CO)NC(=O)CNC(=O)[C@H](CO)NC(=O)CNC(=O)[C@H](CO)NC(=O)CNC(=O)[C@H](CO)NC(=O)CNC(=O)[C@H](CO)NC(=O)CNC(=O)[C@H](CO)NC(=O)CNC(=O)[C@H](CO)NC(=O)CNC(=O)[C@H](CO)NC(=O)CNC(=O)[C@H](CO)NC(=O)CNC(=O)[C@H](CO)NC(=O)CNC(=O)[C@H](CO)NC(=O)CNC(=O)[C@H](CO)NC(=O)CNC(=O)[C@H]1CCCCN1C(=O)[C@H](CCCNC(=N)N)NS(=O)(=O)c1ccc(C(C)(C)C)cc1)C(=O)N1CCC[C@H]1C(=O)N[C@@H](CCC(=O)O)C(=O)N[C@@H](CCC(=O)O)C(=O)N[C@@H](Cc1ccc(O)cc1)C(=O)N[C@@H](CC(C)C)C(=O)N[C@@H](CCC(N)=O)C(=O)O [P3159] | 6.7 ± 1.9 | 3.5 ± 0.2 | – | – |
| CC[C@H](C)[C@H](NC(=O)[C@H](CC(C)C)NC(=O)[C@H](CCCCN)NC(=O)[C@H](CCC(N)=O)NC(=O)[C@H](CCC(=O)O)NC(=O)CNC(=O)[C@H]1CCCCN1C(=O)[C@H](CCCNC(=N)N)NS(=O)(=O)c1ccc(C(C)(C)C)cc1)C(=O)N[C@@H](CO)C(=O)N[C@@H](CCC(=O)O)C(=O)N[C@@H](CCC(=O)O)C(=O)N[C@@H](CC(=O)O)C(=O)N[C@@H](CC(C)C)C(=O)NCC(=O)N[C@@H](CC(=O)O)C(=O)N[C@@H](Cc1ccccc1)C(=O)N[C@@H](CCC(=O)O)C(=O)N[C@@H](CCC(=O)O)C(=O)N[C@H](C(=O)N1CCC[C@H]1C(=O)N[C@@H](CCC(=O)O)C(=O)N[C@@H](CCC(=O)O)C(=O)N[C@@H](Cc1ccc(O)cc1)C(=O)N[C@@H](CC(C)C)C(=O)N[C@@H](CCC(N)=O)C(=O)O)[C@@H](C)CC [P3182] | – | ~25 | – | Ki [1]: 66 ± 13 nM; Effect of antibody 9E10 on inhibitory potency ([2]; 150 nM inhibitor, ~1.2 μM 9E10): reversed the inhibitory potency; Clotting onset time ([2]; 1.2 μM anti-c-myc antibody 9E10): approximately 230 s; Clotting onset time ([2]; no antibody): approximately 530 s |
| CC[C@H](C)[C@H](NC(=O)[C@H](CCC(=O)O)NC(=O)[C@H](CCC(=O)O)NC(=O)[C@H](Cc1ccccc1)NC(=O)[C@H](CC(=O)O)NC(=O)CNC(=O)[C@H](CO)NC(=O)CNC(=O)[C@H](CO)NC(=O)CNC(=O)[C@H](CO)NC(=O)CNC(=O)[C@H](CO)NC(=O)CNC(=O)[C@H](CO)NC(=O)CNC(=O)[C@H](CO)NC(=O)CNC(=O)[C@H]1CCCCN1C(=O)[C@H](CCCNC(=N)N)NS(=O)(=O)c1ccc(C(C)(C)C)cc1)C(=O)N1CCC[C@H]1C(=O)N[C@@H](CCC(=O)O)C(=O)N[C@@H](CCC(=O)O)C(=O)N[C@@H](Cc1ccc(O)cc1)C(=O)N[C@@H](CC(C)C)C(=O)N[C@@H](CCC(N)=O)C(=O)O [P3151] | 0.6 ± 0.1 | 0.5 ± 0.1 | – | – |
| CC[C@H](C)[C@H](NC(=O)[C@H](CCC(=O)O)NC(=O)[C@H](CCC(=O)O)NC(=O)[C@H](Cc1ccccc1)NC(=O)[C@H](CC(=O)O)NC(=O)CNC(=O)[C@H](CO)NC(=O)[C@@H](NC(=O)[C@H](CCCCN)NC(=O)[C@H](CCC(=O)O)NC(=O)[C@H](Cc1ccc(OP(=O)(O)O)cc1)NC(=O)[C@H](Cc1c[nH]cn1)NC(=O)[C@@H]1CCCN1C(=O)[C@H](CO)NC(=O)CNC(=O)[C@H]1CCCCN1C(=O)[C@H](CCCNC(=N)N)NS(=O)(=O)c1ccc(C(C)(C)C)cc1)C(C)C)C(=O)N1CCC[C@H]1C(=O)N[C@@H](CCC(=O)O)C(=O)N[C@@H](CCC(=O)O)C(=O)N[C@@H](Cc1ccc(O)cc1)C(=O)N[C@@H](CC(C)C)C(=O)N[C@@H](CCC(N)=O)C(=O)O [P3170] | 1.5 ± 0.4 | – | 0.7 | – |
| CC[C@H](C)[C@H](NC(=O)[C@H](CCC(=O)O)NC(=O)[C@H](CCC(=O)O)NC(=O)[C@H](Cc1ccccc1)NC(=O)[C@H](CC(=O)O)NC(=O)CNC(=O)[C@H](CO)NC(=O)[C@@H](NC(=O)[C@H](CCCCN)NC(=O)[C@H](CCC(=O)O)NC(=O)[C@H](Cc1ccc(O)cc1)NC(=O)[C@H](Cc1c[nH]cn1)NC(=O)[C@@H]1CCCN1C(=O)[C@H](CO)NC(=O)CNC(=O)[C@H]1CCCCN1C(=O)[C@H](CCCNC(=N)N)NS(=O)(=O)c1ccc(C(C)(C)C)cc1)C(C)C)C(=O)N1CCC[C@H]1C(=O)N[C@@H](CCC(=O)O)C(=O)N[C@@H](CCC(=O)O)C(=O)N[C@@H](Cc1ccc(O)cc1)C(=O)N[C@@H](CC(C)C)C(=O)N[C@@H](CCC(N)=O)C(=O)O [P3169] | 1 ± 0.2 | – | 0.4 | – |
| CC[C@H](C)[C@H](NC(=O)[C@H](CCC(=O)O)NC(=O)[C@H](CCC(=O)O)NC(=O)[C@H](Cc1ccccc1)NC(=O)[C@H](CC(=O)O)NC(=O)CNC(=O)[C@@H](NC(=O)[C@H](CC(=O)O)NC(=O)CNC(=O)[C@H](C)NC(=O)[C@H](CCC(N)=O)NC(=O)[C@H](CCCCN)NC(=O)[C@H](C)NC(=O)CNC(=O)CNC(=O)[C@H](CC(C)C)NC(=O)[C@H](Cc1c[nH]cn1)NC(=O)[C@H](Cc1c[nH]cn1)NC(=O)CNC(=O)[C@H]1CCCCN1C(=O)[C@H](CCCNC(=N)N)NS(=O)(=O)c1ccc(C(C)(C)C)cc1)C(C)C)C(=O)N1CCC[C@H]1C(=O)N[C@@H](CCC(=O)O)C(=O)N[C@@H](CCC(=O)O)C(=O)N[C@@H](Cc1ccc(O)cc1)C(=O)N[C@@H](CC(C)C)C(=O)N[C@@H](CCC(N)=O)C(=O)O [P3234] | – | 3.9 ± 0.8 | – | – |
